The values below come from PubChem BioAssay (NCI).

Among the test systems are SK-MEL-5 melanoma; U251 CNS; SR leukemia; HT29 colon; IGROV1 ovarian; ACHN renal; SF-268 CNS; LOX IMVI melanoma; OVCAR-8 ovarian; NCI-H226 lung.
Common to all, as to assay: NCI tumour cell line growth inhibition, 48 h

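Protocol summary: plate cells (96-well), add compound at 5 concentrations, incubate 48 h, interpolate endpoints linearly. Here, GI50 denotes the concentration required for 50% inhibition of growth. The concentration for full growth arrest is given as TGI.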

For `CC(=O)/C(=C/N1CCN(C(=O)c2ccco2)C1=S)C(=O)c1ccccc1`, the GI50 with SK-MEL-5 melanoma is 8.12 µM; in the assay on U251 CNS, 13.4 µM; in the assay on SR leukemia it was 2.71 µM; in the assay with HT29 colon, 16.9 µM; in the assay with IGROV1 ovarian, 10.9 µM; with ACHN renal, 6.9 µM. The GI50 in the assay on SF-268 CNS is 10.7 µM; with LOX IMVI melanoma it was 8.91 µM; in the assay with OVCAR-8 ovarian, 8.75 µM. Further, the TGI is 15.4 µM with SK-MEL-5 melanoma; more than 50 µM in the assay on U251 CNS; 13.4 µM in the assay with SR leukemia; more than 50 µM with HT29 colon; 28.4 µM in the assay on IGROV1 ovarian; 17.6 µM in the assay with ACHN renal. For the same compound, the TGI in the assay with SF-268 CNS is 27 µM; in the assay with LOX IMVI melanoma it was 20.4 µM; in the assay on OVCAR-8 ovarian it was 24.3 µM.
For the compound `N#CNC1=NCCC(=O)N1CCc1c[nH]c2ccccc12`, the TGI with SK-MEL-5 melanoma, in the assay on SR leukemia, with HT29 colon, in the assay with IGROV1 ovarian, in the assay on SF-268 CNS and in the assay on LOX IMVI melanoma was more than 100 µM throughout. Moreover, the TGI in the assay with OVCAR-8 ovarian and with NCI-H226 lung was more than 100 µM each time.
Regarding `N/C(CC(=O)NOC(=O)c1ccccc1)=N/OC(=O)c1ccccc1`, the TGI is more than 100 µM in the assay with SK-MEL-5 melanoma; more than 100 µM in the assay on U251 CNS; more than 100 µM in the assay on HT29 colon; 31.7 µM in the assay with IGROV1 ovarian; more than 100 µM in the assay on ACHN renal; 75.1 µM in the assay with SF-268 CNS. The TGI with LOX IMVI melanoma is 38.5 µM; in the assay on OVCAR-8 ovarian, more than 100 µM; in the assay with NCI-H226 lung it was 92.5 µM.
Regarding `O/N=C1\C(=C\c2ccc3c(c2)OCCO3)CCCC1C(NO)c1ccc2c(c1)OCCO2` (centres undefined), the TGI was 30.1 µM with SK-MEL-5 melanoma; 42.2 µM with U251 CNS; 55.5 µM in the assay on SR leukemia; 32.3 µM in the assay with HT29 colon; more than 100 µM in the assay with IGROV1 ovarian; more than 100 µM with ACHN renal. The TGI in the assay with SF-268 CNS was 32 µM; in the assay on LOX IMVI melanoma, 29.1 µM; in the assay with OVCAR-8 ovarian it was more than 100 µM.
Take `COc1ccc2c(c1)C=CC1C2CC[C@]2(C)C(NC(=O)/C=C/c3ccc(O)c(O)c3)CCC12` (some centres undefined): the GI50 with SK-MEL-5 melanoma is 14.9 µM; in the assay with SR leukemia it was 4.06 µM; in the assay on IGROV1 ovarian, 5.93 µM; in the assay on ACHN renal, 7.5 µM; in the assay on SF-268 CNS, 17.2 µM; in the assay with LOX IMVI melanoma, 6.45 µM. Further, the results for the GI50 in the assay on OVCAR-8 ovarian and with NCI-H226 lung were 14.2 µM and 15.3 µM, respectively. The TGI in the assay on SK-MEL-5 melanoma came out at 40.1 µM; with SR leukemia it was 17.1 µM; with IGROV1 ovarian it was 24.7 µM; in the assay with ACHN renal, 19.8 µM; in the assay with SF-268 CNS it was 33 µM; with LOX IMVI melanoma it was 20.2 µM. For the same compound, the results for the TGI in the assay with OVCAR-8 ovarian and in the assay on NCI-H226 lung were more than 100 µM and 41.3 µM, respectively.
Regarding `CC(=O)[O][Hg][c]1s[c]([Hg][O]C(C)=O)[c]([Hg][O]C(C)=O)[c]1[Hg][O]C(C)=O`, the GI50 was 1.24 µM with SK-MEL-5 melanoma; 2.27 µM in the assay with SR leukemia; 19.5 µM in the assay on HT29 colon; 3.61 µM with IGROV1 ovarian; 19.3 µM with ACHN renal; 5.92 µM with SF-268 CNS. Also, the GI50 is 2.93 µM in the assay with OVCAR-8 ovarian and more than 100 µM with NCI-H226 lung. Further, the TGI is 3.12 µM in the assay with SK-MEL-5 melanoma; more than 100 µM with SR leukemia; more than 100 µM in the assay with HT29 colon; 23.4 µM with IGROV1 ovarian; more than 100 µM in the assay on ACHN renal; more than 100 µM in the assay with OVCAR-8 ovarian. In addition, the TGI in the assay on NCI-H226 lung was more than 100 µM.
Take `CC1OC(=O)N2CCC=CC12` (centres undefined): the TGI in the assay with SK-MEL-5 melanoma, in the assay with U251 CNS, in the assay on HT29 colon, in the assay on IGROV1 ovarian, with ACHN renal and with SF-268 CNS was more than 100 µM in each case. Moreover, the TGI in the assay with LOX IMVI melanoma, in the assay with OVCAR-8 ovarian and in the assay on NCI-H226 lung was more than 100 µM in each case.
As for `CC1=CC(=O)N2C(OC[C@@H]2c2ccccc2)O1` (some centres undefined), the TGI in the assay with SK-MEL-5 melanoma, with U251 CNS, in the assay on SR leukemia, in the assay on HT29 colon, with IGROV1 ovarian and with ACHN renal was more than 100 µM throughout. Further, the TGI in the assay with SF-268 CNS, in the assay on OVCAR-8 ovarian and in the assay on NCI-H226 lung was more than 100 µM throughout.
Turning to `CCOC(=O)CC(C)C1(C=O)CCCCC1=O` (centres undefined), the TGI with SK-MEL-5 melanoma was more than 100 µM; with U251 CNS, more than 100 µM; in the assay with SR leukemia it was 49.8 µM; in the assay with IGROV1 ovarian, more than 100 µM; with ACHN renal it was more than 100 µM; with SF-268 CNS, more than 100 µM. The TGI was 34 µM in the assay with LOX IMVI melanoma, more than 100 µM in the assay with OVCAR-8 ovarian and more than 100 µM in the assay on NCI-H226 lung.
With `C#C[C@@H](CCCC)OC(=O)N[C@H](C)c1ccccc1`, the TGI in the assay with SK-MEL-5 melanoma is 46.5 µM; in the assay on U251 CNS, more than 100 µM; in the assay with SR leukemia, more than 100 µM; in the assay with HT29 colon, more than 100 µM; with IGROV1 ovarian it was 52.6 µM; in the assay on ACHN renal, more than 100 µM. The figures for the TGI with LOX IMVI melanoma, with OVCAR-8 ovarian and with NCI-H226 lung were more than 100 µM, more than 100 µM and 82 µM, respectively.
Take `CC[C@@H](C(=O)[C@@H](C)[C@@H](O)[C@H](C)[C@@H]1O[C@@H]([C@@H](CC)C(=O)O)CC[C@@H]1C)[C@H]1O[C@]2(C=C[C@@H](O)[C@]3(CC[C@@](C)([C@H]4CC[C@](O)(CC)[C@H](C)O4)O3)O2)[C@H](C)C[C@@H]1C`: the GI50 with SK-MEL-5 melanoma was 0.401 µM; with U251 CNS, 0.149 µM; in the assay on HT29 colon it was 0.331 µM; with IGROV1 ovarian, 2.05 µM; with ACHN renal, 1.39 µM; with SF-268 CNS it was 1.93 µM. In addition, the GI50 is 0.596 µM with LOX IMVI melanoma, 1.2 µM in the assay with OVCAR-8 ovarian and 2.07 µM in the assay on NCI-H226 lung. For the same compound, the TGI in the assay on SK-MEL-5 melanoma is 1.61 µM; in the assay on U251 CNS it was 8.91 µM; with HT29 colon, 15 µM; with IGROV1 ovarian, more than 84.7 µM; in the assay with ACHN renal, 49.2 µM; with SF-268 CNS it was 24.8 µM. The TGI amounted to 12.9 µM in the assay with LOX IMVI melanoma, 29.5 µM with OVCAR-8 ovarian and 19.6 µM in the assay on NCI-H226 lung.
